MIC data for 4 compounds are collected here from patent publication US4201782A, “Thiadiazolyl cephalosporin analogs” (Shionogi & Co., Ltd., priority 1977, dated 1980).

The test system of one test is S. aureus 209P JC-1. Briefly: MIC by agar-dilution, S. aureus 209P JC-1. The class given is cell-based. The following applies: Staphylococcus aureus, as sodium salt, pH 7.0, inoculum 10^6, read-out: Minimal Inhibitory Concentration.
In another test the test system is S. aureus Smith. Briefly: MIC by agar-dilution, S. aureus Smith. The class given is cell-based. The following applies: Staphylococcus aureus, as sodium salt, pH 7.0, inoculum 10^6, read-out: Minimal Inhibitory Concentration.
The subject of a further test is S. aureus 077. Briefly: MIC by agar-dilution, S. aureus 077. Particulars: Staphylococcus aureus, as sodium salt, pH 7.0, inoculum 10^6, read-out: Minimal Inhibitory Concentration. The class given is cell-based.
The next test deals with S. aureus C-14. Briefly: MIC by agar-dilution, S. aureus C-14. The class given is cell-based. Particulars: Staphylococcus aureus, C14, as sodium salt, pH 7.0, inoculum 10^6, read-out: Minimal Inhibitory Concentration.
The subject of a further test is S. pyogenes C-203. The experiment in a line: MIC by agar-dilution, S. pyogenes C-203. Format: cell-based. The following applies: Streptococcus pyogenes, C203, as sodium salt, pH 7.0, inoculum 10^6, read-out: Minimal Inhibitory Concentration.
The subject of the next test is S. pneumoniae I. The experiment in a line: MIC by agar-dilution, S. pneumoniae I. Format: cell-based. The following applies: Streptococcus pneumoniae, as sodium salt, pH 7.0, inoculum 10^6, read-out: Minimal Inhibitory Concentration.
In the next test the test system is E. coli H. Briefly: MIC by agar-dilution, E. coli H. The class given is cell-based. Particulars: Escherichia coli, as sodium salt, pH 7.0, inoculum 10^6, read-out: Minimal Inhibitory Concentration.
The test system of the next test is E. coli NIHJ JC-2. Briefly: MIC by agar-dilution, E. coli NIHJ JC-2. Format: cell-based. The following applies: Escherichia coli, NIHJJC2, as sodium salt, pH 7.0, inoculum 10^6, read-out: Minimal Inhibitory Concentration.
Another test relates to E. coli EC-14. Briefly: MIC by agar-dilution, E. coli EC-14. Format: cell-based. The following applies: Escherichia coli, EC14, as sodium salt, pH 7.0, inoculum 10^6, read-out: Minimal Inhibitory Concentration.
The subject of another test is E. coli 377. The experiment in a line: MIC by agar-dilution, E. coli 377. Particulars: Escherichia coli, as sodium salt, pH 7.0, inoculum 10^6, read-out: Minimal Inhibitory Concentration. Format: cell-based.
The next test concerns E. coli 73. The experiment in a line: MIC by agar-dilution, E. coli 73. The class given is cell-based. Particulars: Escherichia coli, as sodium salt, pH 7.0, inoculum 10^6, read-out: Minimal Inhibitory Concentration.
In a further test the test system is K. pneumoniae SHIONOGI
The experiment in a line: MIC by agar-dilution, K. pneumoniae SHIONOGI
Particulars: Klebsiella pneumoniae, as sodium salt, pH 7.0, inoculum 10^6, read-out: Minimal Inhibitory Concentration. The class given is cell-based.

A further test has as its system K. pneumoniae 363. Briefly: MIC by agar-dilution, K. pneumoniae 363. The class given is cell-based. Particulars: Klebsiella pneumoniae, as sodium salt, pH 7.0, inoculum 10^6, read-out: Minimal Inhibitory Concentration.
Another test concerns P. mirabilis PR-4. The experiment in a line: MIC by agar-dilution, P. mirabilis PR-4. Format: cell-based. Particulars: Proteus mirabilis, PR4, as sodium salt, pH 7.0, inoculum 10^6, read-out: Minimal Inhibitory Concentration.
In a further test the test system is P. morganii No. 9. Briefly: MIC by agar-dilution, P. morganii No. 9. Format: cell-based, Proteus morganii. The following applies: Morganella morganii, as sodium salt, pH 7.0, inoculum 10^6, read-out: Minimal Inhibitory Concentration.
Another test concerns P. vulgaris CN-329. The experiment in a line: MIC by agar-dilution, P. vulgaris CN-329. The class given is cell-based. The following applies: Proteus vulgaris, CN329, as sodium salt, pH 7.0, inoculum 10^6, read-out: Minimal Inhibitory Concentration.
Another test concerns P. vulgaris No. 3. Briefly: MIC by agar-dilution, P. vulgaris No. 3. The following applies: Proteus vulgaris, as sodium salt, pH 7.0, inoculum 10^6, read-out: Minimal Inhibitory Concentration. Format: cell-based.
In another test the test system is E. cloacae 233. The experiment in a line: MIC by agar-dilution, E. cloacae 233. Format: cell-based. Particulars: Enterobacter cloacae, as sodium salt, pH 7.0, inoculum 10^6, read-out: Minimal Inhibitory Concentration.
In another test the test system is E. cloacae 13047. The experiment in a line: MIC by agar-dilution, E. cloacae 13047. The class given is cell-based. The following applies: Enterobacter cloacae, as sodium salt, pH 7.0, inoculum 10^6, read-out: Minimal Inhibitory Concentration.
The next test deals with S. marcescens 13880. The experiment in a line: MIC by agar-dilution, S. marcescens 13880. Format: cell-based. Particulars: Serratia marcescens, as sodium salt, pH 7.0, inoculum 10^6, read-out: Minimal Inhibitory Concentration.
The next test deals with P. aeruginosa 25619. The experiment in a line: MIC by agar-dilution, P. aeruginosa 25619. Format: cell-based. Particulars: Pseudomonas aeruginosa, as sodium salt, pH 7.0, inoculum 10^6, read-out: Minimal Inhibitory Concentration.

Turning to `CO[C@@]1(NC(=O)C(C(=O)O)c2ccc(O)cc2)C(=O)N2C(C(=O)O)=C(CSc3nncs3)CO[C@@H]21` (stereo partly drawn) [Compound (2), 7α-methoxy-7β-(α-p-hydroxyphenyl-α-carboxyacetamido)-3-(1,3,4-thiadiazol-5-yl)thiomethyl-1-dethia-1-oxa-3-cephem-4-carboxylic acid], the MIC worked out at 12.5 µg/mL in the test with S. aureus 209P JC-1; 12.5 µg/mL in the test on S. aureus Smith; 25 µg/mL in the test with S. aureus 077; 25 µg/mL in the test on S. aureus C-14; 3.13 µg/mL in the test on S. pyogenes C-203; 6.25 µg/mL with S. pneumoniae I. Also, the MIC with E. coli H is 0.2 µg/mL; in the test with E. coli NIHJ JC-2, 0.39 µg/mL; with E. coli EC-14, 0.39 µg/mL; with E. coli 377 it was 0.78 µg/mL; in the test on E. coli 73 it was 3.13 µg/mL; in the test on K. pneumoniae SHIONOGI, 0.39 µg/mL. The MIC in the test with K. pneumoniae 363 is 0.39 µg/mL; with P. mirabilis PR-4 it was 0.39 µg/mL; in the test on P. morganii No. 9, 0.78 µg/mL; in the test on P. vulgaris CN-329, 0.78 µg/mL; in the test with P. vulgaris No. 3 it was 0.78 µg/mL; in the test with E. cloacae 233, 6.25 µg/mL. Moreover, the MIC came to 25 µg/mL in the test with E. cloacae 13047, 1.56 µg/mL in the test on S. marcescens 13880 and 25 µg/mL in the test with P. aeruginosa 25619.

As to `CO[C@@]1(NC(=O)C(C(=O)O)c2ccc(O)cc2)C(=O)N2C(C(=O)O)=C(CSc3nnc(C)s3)CO[C@@H]21` (stereo partly drawn) [Compound (1), 7α-methoxy-7β-(α-p-hydroxyphenyl-α-carboxyacetamido)-3-(2-methyl-1,3,4-thiadiazol-5-yl)thiomethyl-1-dethia-1-oxa-3-cephem-4-carboxylic acid], the MIC in the test with S. aureus 209P JC-1 amounted to 12.5 µg/mL; in the test with S. aureus Smith, 25 µg/mL; in the test on S. aureus 077, 25 µg/mL; with S. aureus C-14, 25 µg/mL; in the test with S. pyogenes C-203, 3.13 µg/mL; with S. pneumoniae I, 3.13 µg/mL. Moreover, the MIC in the test on E. coli H was determined as 0.2 µg/mL; in the test with E. coli NIHJ JC-2, 0.78 µg/mL; with E. coli EC-14, 0.78 µg/mL; in the test on E. coli 377, 1.56 µg/mL; in the test with E. coli 73 it was 6.25 µg/mL; in the test on K. pneumoniae SHIONOGI, 0.78 µg/mL. The MIC in the test on K. pneumoniae 363 amounted to 0.39 µg/mL; in the test with P. mirabilis PR-4, 0.39 µg/mL; in the test with P. morganii No. 9, 0.78 µg/mL; in the test on P. vulgaris CN-329, 0.39 µg/mL; in the test on P. vulgaris No. 3 it was 0.78 µg/mL; with E. cloacae 233 it was 1.6 µg/mL. For the same compound, the MIC came to 50 µg/mL in the test with E. cloacae 13047, 3.13 µg/mL with S. marcescens 13880 and 25 µg/mL in the test on P. aeruginosa 25619.

Consider `CO[C@@]1(NC(=O)C(C(=O)O)c2ccsc2)C(=O)N2C(C(=O)O)=C(CSc3nnc(C)s3)CO[C@@H]21` (stereo partly drawn) [Compound (3), 7α-methoxy-7β-[α-(3-thienyl)-α-carboxyacetamido]-3-(2-methyl-1,3,4-thiadiazol-5-yl)thiomethyl-1-dethia-1-oxa-3-cephem-4-carboxylic acid], for which the MIC is 6.25 µg/mL in the test with S. aureus 209P JC-1; 6.25 µg/mL in the test with S. aureus Smith; 6.25 µg/mL in the test on S. aureus 077; 6.25 µg/mL in the test with S. aureus C-14; 0.78 µg/mL in the test with S. pyogenes C-203; 3.13 µg/mL in the test on S. pneumoniae I. Moreover, the MIC amounted to 0.05 µg/mL with E. coli H; 0.39 µg/mL in the test on E. coli NIHJ JC-2; 0.2 µg/mL in the test with E. coli EC-14; 0.78 µg/mL in the test with E. coli 377; 1.56 µg/mL in the test with E. coli 73; 0.2 µg/mL with K. pneumoniae SHIONOGI. Also, the MIC in the test with K. pneumoniae 363 came to 0.78 µg/mL; with P. mirabilis PR-4 it was 0.1 µg/mL; with P. morganii No. 9, 0.2 µg/mL; in the test with P. vulgaris CN-329 it was 0.1 µg/mL; in the test with P. vulgaris No. 3, 0.39 µg/mL; with E. cloacae 233, 12.5 µg/mL. Moreover, the MIC with E. cloacae 13047 was 25 µg/mL; with S. marcescens 13880 it was 1.56 µg/mL; with P. aeruginosa 25619, 25 µg/mL.

`CO[C@@]1(NC(=O)C(C(=O)O)c2ccsc2)C(=O)N2C(C(=O)O)=C(CSc3nncs3)CO[C@@H]21` (stereo partly drawn) [Compound (4), 7α-methoxy-7β-[α-(3-thienyl)-α-carboxyacetamido]-3-(1,3,4-thiadiazol-5-yl)thiomethyl-1-dethia-1-oxa-3-cephem-4-carboxylic acid]: the MIC came to 6.25 µg/mL in the test on S. aureus 209P JC-1; 6.25 µg/mL in the test with S. aureus Smith; 6.25 µg/mL with S. aureus 077; 6.25 µg/mL in the test on S. aureus C-14; 3.13 µg/mL in the test with S. pyogenes C-203; 6.25 µg/mL in the test on S. pneumoniae I. Further, the MIC amounted to 0.1 µg/mL in the test on E. coli H; 0.2 µg/mL in the test on E. coli NIHJ JC-2; 0.1 µg/mL in the test with E. coli EC-14; 0.39 µg/mL with E. coli 377; 0.78 µg/mL in the test on E. coli 73; 0.2 µg/mL with K. pneumoniae SHIONOGI. In addition, the MIC with K. pneumoniae 363 was 0.2 µg/mL; with P. mirabilis PR-4, 0.2 µg/mL; in the test on P. morganii No. 9 it was 0.2 µg/mL; with P. vulgaris CN-329, 0.2 µg/mL; in the test with P. vulgaris No. 3 it was 0.39 µg/mL; in the test with E. cloacae 233 it was 6.25 µg/mL. The MIC with E. cloacae 13047 stood at 12.5 µg/mL; with S. marcescens 13880, 0.39 µg/mL; with P. aeruginosa 25619 it was 25 µg/mL.
